In patent publication US12545643B2, “3,5-diaminobenzoic acid compound, and Pin1 inhibitor and therapeutic agent for inflammatory diseases using same” (Amenis Bioscience, Inc., priority 2020, dated 2026):

Key:
[1] = target: T1, Pin1 (Homo sapiens, UniProt Q13526); experiment: Cell-based assay of Pin1 inhibition (AMPK phosphorylation level as index, Western blot); parameters: endogenous in cells; host or cells: 293T cells; key: +++: a higher level of AMPK phosphorylation is promoted, as compared with C1; ++: a similar level of AMPK phosphorylation is promoted, as compared with C1; +: a lower level of AMPK phosphorylation is promoted, as compared with C1; −: no or almost no promotion is found in AMPK phosphorylation; conditions: 293T cells, compound at 50 μM, 10 mM 2-DG, pAMPK level compared with known Pin1 inhibitor C1
Method: To evaluate the inhibitory activity of each compound synthesized in Example 1 against the function of Pin1, a cell-based assay was performed according to the method previously developed by the inventors (Yusuke Nakatsu et al., Journal of Biological Chemistry, 2015, Vol. 290, No. 40, pp. 24255-24266), in which the phosphorylation level of AMPK (AMP-activated protein kinase), a protein whose phosphorylation is suppressed by Pin1, was examined as an index.
Briefly, 293T cells were plated on a collagen-coated 24-well plate. Forty-eight hours later, each compound synthesized in the preceding example (at 50 μM) was added to the plate, and the plate was left to stand in an incubator for 30 minutes. Subsequently, 10 mM 2-DG was added to the plate, and one hour later, each sample was collected with a buffer containing mercaptoethanol and SDS.
SDS-PAGE and blotting were performed, and blocking was then performed with 3% BSA for 1 hour, according to conventional protocols. Subsequently, a pAMPK antibody (Cell Signaling; diluted 1:2000 in Can Get Signal Solution 1, Toyobo) as a primary antibody, and an HRP-linked anti rabbit IgG (GE Healthcare; diluted 1:4000 in Can Get Signal Solution 2, Toyobo) as a secondary antibody were allowed to react at ambient temperature for 1 hour prior to detection.
The inhibitory activity against the function of Pin1 was evaluated as indicated below by comparing the inhibition levels between each compound and a known Pin1 inhibitor, C1 ((R)-2-(5-(4-methoxyphenyl)-2-methylfuran-3-carboxamido)-3-(naphthalene-6-yl) propanoic acid):
(+++): a higher level of AMPK phosphorylation is promoted, as compared with C1;
(++): a similar level of AMPK phosphorylation is promoted, as compared with C1;
(+): a lower level of AMPK phosphorylation is promoted, as compared with C1;
(−): no or almost no promotion is found in AMPK phosphorylation.

[2] = target: T1, Pin1; experiment: Cell-free assay of peptidylprolyl isomerase activity (absorbance at 330 nm, substrate Suc-Ala-Glu-Pro-Phe-pNA); format: biochemical; conditions: compound 10 μM, Pin1 5 nM, substrate peptide 60 μM, 10° C.; read-out: Pin1 inhibition activity Cell-free assay (inhibition ratio)
Method: For some compounds synthesized in Example 1, the inhibitory activity against the function of Pin1 was measured by a cell-free assay based on the method by Janowski et al. (AnalyticalBiochemistry, 1997, Vol. 252, Issue 2, pp. 299-307) because there is an assay measuring peptidylprolylisomerase activity without cells (cell-free).
Briefly, an assay buffer (containing 35 mM HEPES, pH 7.8, 50 μM DTT and 0.0025% NP40) was equilibrated to 10° C. in a quartz cell with stirring function. To this solution was added the compound dissolved in DMSO (10 μM) and then UV spectrum of the resulting solution was immediately measured. Then Pin1 (final concentration of 5 nM) was added to the solution. The reaction was initiated by adding a substrate peptide (Suc-Ala-Glu-Pro-Phe-pNA) dissolved in 0.5 M LiCl solution in trifluoroethanol (final concentration of 60 μM). After reaction was initiated, the change of absorbance at 330 nm was measured for 5 minutes. The resultant reaction curve was fitted to a first order decay model to calculate the reaction rate. The catalytic reaction rate was calculated by subtracting the background rate from the reaction rate. The inhibition ratio (%) was calculated from the catalytic reaction rates in the presence and absence of the compound. The higher inhibition ratio means the higher inhibitory activity against Pin1 function.

T1 sequence (Q13526 whole entry): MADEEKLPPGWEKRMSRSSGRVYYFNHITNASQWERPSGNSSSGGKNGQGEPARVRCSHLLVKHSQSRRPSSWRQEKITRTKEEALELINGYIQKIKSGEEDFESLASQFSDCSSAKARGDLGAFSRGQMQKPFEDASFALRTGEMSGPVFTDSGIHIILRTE

Structure (SMILES) | inhibition at 10 µM [2] | Pin1 inhibition activity Cell-based assay [1]
COC(=O)c1cc(NC(=O)c2ccc3ccccc3c2)cc(NC(=O)n2c3ccccc3c3ccccc32)c1 [Compound H-591] |  | +++ (Hydrolysis causes conversion to H-594)
O=C(O)c1cc(NC(=O)c2ccc3ccccc3c2)cc(NC(=O)n2c3ccccc3c3ccccc32)c1 [Compound H-594] |  | +++
COC(=O)c1cc(NC(=O)Nc2cccc3ccccc23)cc(NC(=O)c2ccc3ccccc3c2)c1 [Compound H-609] |  | ++ to +++ (Hydrolysis causes conversion to H-613)
O=C(Nc1cc(NC(=O)c2ccc3ccccc3c2)cc(C(=O)O)c1)Nc1cccc2ccccc12 [Compound H-613] | 38% | + to ++
COC(=O)c1cc(NC(=O)c2ccccc2)cc(NC(=O)n2c3ccccc3c3ccccc32)c1 [Compound H-679] |  | ++ (Hydrolysis causes conversion to H-681)
O=C(O)c1cc(NC(=O)c2ccccc2)cc(NC(=O)n2c3ccccc3c3ccccc32)c1 [Compound H-681] |  | ++
O=C(O)c1cc(NC(=O)c2cccnc2)cc(NC(=O)n2c3ccccc3c3ccccc32)c1 [Compound H-682] |  | +
COC(=O)c1cc(NC(=O)c2ccc(NC(C)=O)cc2)cc(NC(=O)n2c3ccccc3c3ccccc32)c1 [Compound H-687] |  | − (Hydrolysis causes conversion to H-694)
COC(=O)c1cc(NC(=O)c2ccc3c(c2)OCO3)cc(NC(=O)n2c3ccccc3c3ccccc32)c1 [Compound H-690] |  | − (Hydrolysis causes conversion to H-695)
O=C(O)c1cc(NC(=O)c2ccc3c(c2)OCCO3)cc(NC(=O)n2c3ccccc3c3ccccc32)c1 [Compound H-692] | 80 to 94% | +++
CC(=O)Nc1ccc(C(=O)Nc2cc(NC(=O)n3c4ccccc4c4ccccc43)cc(C(=O)O)c2)cc1 [Compound H-694] | 69% | ++
O=C(O)c1cc(NC(=O)c2ccc3c(c2)OCO3)cc(NC(=O)n2c3ccccc3c3ccccc32)c1 [Compound H-695] |  | +++
COC(=O)c1cc(NC(=O)c2ccc(OC(C)=O)cc2)cc(NC(=O)n2c3ccccc3c3ccccc32)c1 [Compound H-696] |  | ++ (Hydrolysis causes conversion to H-697)
O=C(O)c1cc(NC(=O)c2ccc(O)cc2)cc(NC(=O)n2c3ccccc3c3ccccc32)c1 [Compound H-697] |  | +
COC(=O)c1cc(NC(=O)c2cnccn2)cc(NC(=O)n2c3ccccc3c3ccccc32)c1 [Compound H-699] |  | ++ (Hydrolysis causes conversion to H-700)
O=C(O)c1cc(NC(=O)c2cnccn2)cc(NC(=O)n2c3ccccc3c3ccccc32)c1 [Compound H-700] |  | ++

Structure (SMILES) | inhibition at 10 µM [2] | Pin1 inhibition activity Cell-based assay [1]
COC(=O)c1cc(NC(=O)c2ccc3ccccc3c2)cc(NC(=O)N(c2ccccc2)c2ccccc2)c1 [Compound H-728] |  | + (Hydrolysis causes conversion to H-732)
COC(=O)c1cc(NC(=O)c2ccc3ccccc3n2)cc(NC(=O)N(c2ccccc2)c2ccccc2)c1 [Compound H-729] |  | ++ (Hydrolysis causes conversion to H-733)
COC(=O)c1cc(NC(=O)c2ccc3c(c2)OCCO3)cc(NC(=O)N(c2ccccc2)c2ccccc2)c1 [Compound H-730] |  | ++ (Hydrolysis causes conversion to H-734)
COC(=O)c1cc(NC(=O)c2cnc3ccccc3n2)cc(NC(=O)N(c2ccccc2)c2ccccc2)c1 [Compound H-731] |  | +++ (Hydrolysis causes conversion to H-735)
O=C(O)c1cc(NC(=O)c2ccc3ccccc3c2)cc(NC(=O)N(c2ccccc2)c2ccccc2)c1 [Compound H-732] |  | +
O=C(O)c1cc(NC(=O)c2cnc3ccccc3n2)cc(NC(=O)N(c2ccccc2)c2ccccc2)c1 [Compound H-735] |  | +
COC(=O)c1cc(NC(=O)Cn2c3ccccc3c3ccccc32)cc(NC(=O)c2ccc3ccccc3c2)c1 [Compound H-744] |  | + (Hydrolysis causes conversion to H-745)
COC(=O)c1cc(NC(=O)Cn2c3ccccc3c3ccccc32)cc(NC(=O)c2ccc3ccccc3n2)c1 [Compound H-746] |  | − (Hydrolysis causes conversion to H-747)
O=C(Cn1c2ccccc2c2ccccc21)Nc1cc(NC(=O)c2ccc3ccccc3n2)cc(C(=O)O)c1 [Compound H-747] |  | ++
COC(=O)c1cc(NC(=O)Cn2c3ccccc3c3ccccc32)cc(NC(=O)c2ccc3c(c2)OCCO3)c1 [Compound H-748] |  | ++ (Hydrolysis causes conversion to H-749)
COC(=O)c1cc(NC(=O)COc2ccccc2)cc(NC(=O)n2c3ccccc3c3ccccc32)c1 [Compound H-758] |  | − (Hydrolysis causes conversion to H-759)
COC(=O)c1cc(NC(=O)COc2ccc3ccccc3c2)cc(NC(=O)n2c3ccccc3c3ccccc32)c1 [Compound H-760] |  | + (Hydrolysis causes conversion to H-761)
COC(=O)c1cc(NC(=O)COc2ccc3ccccc3n2)cc(NC(=O)n2c3ccccc3c3ccccc32)c1 [Compound H-764] |  | − (Hydrolysis causes conversion to H-765)
COC(=O)c1cc(NC(=O)CNC(=O)c2ccccc2)cc(NC(=O)n2c3ccccc3c3ccccc32)c1 [Compound H-766] |  | + (Hydrolysis causes conversion to H-767)
COC(=O)c1cc(NC(=O)CNC(=O)OCc2ccccc2)cc(NC(=O)n2c3ccccc3c3ccccc32)c1 [Compound H-768] |  | − (Hydrolysis causes conversion to H-769)

The next lines start with results.

inhibition at 10 µM [2] | Structure (SMILES) | Pin1 inhibition activity Cell-based assay [1]
61% | O=C(O)c1cc(NC(=O)c2ccc3ccccc3n2)cc(NC(=O)N(c2ccccc2)c2ccccc2)c1 [Compound H-733] | −
82% | O=C(O)c1cc(NC(=O)c2ccc3c(c2)OCCO3)cc(NC(=O)N(c2ccccc2)c2ccccc2)c1 [Compound H-734] | −
88 to 95% | O=C(Cn1c2ccccc2c2ccccc21)Nc1cc(NC(=O)c2ccc3ccccc3c2)cc(C(=O)O)c1 [Compound H-745] | −
53% | O=C(Cn1c2ccccc2c2ccccc21)Nc1cc(NC(=O)c2ccc3c(c2)OCCO3)cc(C(=O)O)c1 [Compound H-749] | 
11% | O=C(COc1ccccc1)Nc1cc(NC(=O)n2c3ccccc3c3ccccc32)cc(C(=O)O)c1 [Compound H-759] | −
70% | O=C(COc1ccc2ccccc2c1)Nc1cc(NC(=O)n2c3ccccc3c3ccccc32)cc(C(=O)O)c1 [Compound H-761] | −
42.8% | O=C(COc1ccc2ccccc2n1)Nc1cc(NC(=O)n2c3ccccc3c3ccccc32)cc(C(=O)O)c1 [Compound H-765] | −
74.8% | O=C(CNC(=O)c1ccccc1)Nc1cc(NC(=O)n2c3ccccc3c3ccccc32)cc(C(=O)O)c1 [Compound H-767] | −
4.2% | O=C(CN(c1ccccc1)c1ccccc1)Nc1cc(NC(=O)c2ccc3c(c2)OCCO3)cc(C(=O)O)c1 [Compound H-823] | 
19.9% | O=C(CN(c1ccccc1)c1ccccc1)Nc1cc(NC(=O)c2ccccc2)cc(C(=O)O)c1 [Compound H-825] | 
